Laboratory results as given in patent publication US20230134986A1, “GLUCOSE TRIPTOLIDE CONJUGATES AND USES THEREOF” (The Johns Hopkins University, priority 2020, published 2023).
“Also recorded” adds a separate entry of the source.

Experiments:
Assay type in all cases: cell-based, human
[1] = test system: RPB1 (catalytic subunit of RNAPII); test: RPB1 (RNAPII) degradation in HeLa cells, immunostaining and western blot; design: endogenous RNAPII (RPB1) level: unit of the concentration uncertain; settings: 1 (unit uncertain) compound 1, 24 h
Procedure: (§1) Western blot analysis. Whole cell lysates were prepared by adding lysis buffer [4% SDS, 20% glycerol, 10% 2-mercaptoethanol, 0.004% bromophenol blue, 0.125 M Tris-HCl (pH 6.8)] to the cell pellets for 30 minutes in ice followed by centrifugation at 12,000×g for 10 minutes then boiling for 5 minutes. For isolation of cytosolic and mitochondrial fractions of cytochrome C, cell pellets were resuspended in CLAMI buffer (250 mM sucrose, 70 mM KCl, […] digitonin in 1×PBS, protease inhibitor cocktail (1 tablet/10 ml CLAMI buffer)) then incubated on ice for 5 minutes. After centrifugation at 12,000×g for 5 minutes at 4° C., supernatant (cytoplasmic fraction) was collected and the pellet resuspended in lysis buffer as described above. Proteins were then separated by SDS-PAGE and transferred to nitrocellulose membranes (Bio-Rad). After blocking at room temperature for 1 h, membranes were incubated at 4′C overnight with the primary antibodies including anti-Rpb1 (Santa Cruz Biotechnology), anti-XPB (Biotechne), anti-Actin (Developmental Studies Hybridoma Bank), anti-GAPDH (Santa Cruz Biotechnology), anti-cytochrome C (Santa Cruz Biotechnology), anti-PARP1 (Santa Cruz Biotechnology), anti-cleaved caspase 3 (Cell Signaling Technology), anti-VDAC (ProteinTech), anti-HIF-1[…] (BD sciences), and anti-GLUT1 (Santa Cruz Biotechnology) antibodies followed by incubation with horseradish peroxidase-conjugated anti-mouse or anti-rabbit IgG (GE Healthcare) at room temperature for 2 hours. Antibody-protein complexes were detected using enhanced chemiluminescence (ECL) immunoblotting detection reagent (EMD Millipore).
(§2) Immunocytochemistry and cytochemistry. […] Glucose uptake was monitored by incubating cells in 200 μM 2-NBDG (ThermoFisher) for 6 hours prior to fixation. Fluorescence was observed under the Nikon Eclipse TE200 Inverted microscope (Nikon Instruments Inc., Melville, N.Y., USA). […] Rpb1 levels were measured using the MEASURE feature of ImageJ where all the background signals were subtracted from the intergrated density of nuclear Rpb1.

HeLa cells = test: Apoptosis signaling in HeLa cells (nuclear fragmentation, cytochrome c, caspase 3, PARP1); design: percentage of cells with nuclear fragmentation / cytochrome c release from mitochondria to cytosol: unit of the concentration uncertain; settings: for percentage of cells with nuclear fragmentation: control 6%
Procedure: as §1
Immunocytochemistry and cytochemistry. HeLa or PC3 cells (2×10^5) were seeded on a MatTek glass bottom culture dish (Fisher Scientific, Pittsburgh, Pa., USA) and allowed to adhere for 24 h. Cells were then treated with either DMSO or drugs for 6 or 24 h then fixed with 4% paraformaldehyde, permeabilized using 1×PBS with 0.5% triton X 100 then probed for endogenous RNA Polymerase II catalytic subunit Rpb1 or HIF-1α using anti-RNAPII (Santa Cruz Biotechnology) and anti-HIF-1α (BD sciences) antibodies, respectively. Detection was then done using anti-mouse Alexa Fluor 488 (Invitrogen). For nuclear staining, fixed and permeabilized cells were incubated in DAPI (ThermoFisher) or Hoechst 33258 (Sigma) for 30 minutes prior to imaging. Glucose uptake was monitored by incubating cells in 200 μM 2-NBDG (ThermoFisher) for 6 hours prior to fixation. Fluorescence was observed under the Nikon Eclipse TE200 Inverted microscope (Nikon Instruments Inc., Melville, N.Y., USA). ImageJ software (NIH, Bethesda, Md., USA; http://imagej.nih.gov/ij/index.html) was used to measure intracellular protein levels in immuno-cytochemistry samples (Li et al. (2015) Toxicological Sciences: an Official Journal of the Society of Toxicology 143:196-208). Rpb1 levels were measured using the MEASURE feature of ImageJ where all the background signals were subtracted from the intergrated density of nuclear Rpb1.

[2] = test system: RPB1 in C342T XPB mutant cell line; test: RPB1 degradation in C342T XPB knock-in cells, western blot; settings: C342T XPB mutant cell line, compound 1 up to 3 mM (so in the source)
Text: Cells and culture conditions. Primary astrocytes (Lonza, Walkersville, Md.; ABM™ Basal Media with AGM™ SingleQuots™ Supplement Pack), fibroblast (ATCC; Fibroblast Basal Medium (ATCC© PCS-201-030™) with Fibroblast Growth Kit-Serum-free (ATCC© PCS-201-040™)), airway epithelial cell (ATCC; Airway Epithelial Cell Basal Medium (ATCC© PCS-300-030™) with Bronchial Epithelial Cell Growth Kit (ATCC© PCS-300-040™)), renal proximal tubule (ATCC; Renal Epithelial Cell Basal Medium (ATCC© PCS-400-030™) with Renal Epithelial Cell Growth Kit (ATCC© PCS-400-040™)), prostate epithelial cell (Lonza; PrEGM™ BulletKit™) and mammary epithelial cell (Lonza; MEBM™ BulletKit™) were kept in a humidified incubator at 37° C. adjusted to 5% CO2. […]
Western blot analysis. […] Antibody-protein complexes were detected using enhanced chemiluminescence (ECL) immunoblotting detection reagent (EMD Millipore).

HepG2 = HepG2 proliferation under hypoxia ([3H]-thymidine incorporation); settings: HepG2, 1% O2, 48 h post treatment
[3] = test system: RPB1 (RNAPII) in PC3 cells; test: RPB1 degradation in PC3 cells under hypoxia, immunocytochemistry and western blot; settings: PC3, hypoxic but not normoxic conditions, 3 µM compound 1
Procedure: Western blot analysis. Whole cell lysates were prepared by adding lysis buffer [4% SDS, 20% glycerol, 10% 2-mercaptoethanol, 0.004% bromophenol blue, 0.125 M Tris-HCl (pH 6.8)] to the cell pellets for 30 minutes in ice followed by centrifugation at 12,000×g for 10 minutes then boiling for 5 minutes. For isolation of cytosolic and mitochondrial fractions of cytochrome C, cell pellets were resuspended in CLAMI buffer (250 mM sucrose, 70 mM KCl, […] digitonin in 1×PBS, protease inhibitor cocktail (1 tablet/10 ml CLAMI buffer)) then incubated on ice for 5 minutes. After centrifugation at 12,000×g for 5 minutes at 4° C., supernatant (cytoplasmic fraction) was collected and the pellet resuspended in lysis buffer as described above. Proteins were then separated by SDS-PAGE and transferred to nitrocellulose membranes (Bio-Rad). […] Antibody-protein complexes were detected using enhanced chemiluminescence (ECL) immunoblotting detection reagent (EMD Millipore).
as §2

[4] = HeLa, 3 (unit uncertain) compound 1

CC(C)[C@]12O[C@H]1[C@@H]1O[C@]13[C@]1(O[C@H]1C[C@H]1C4=C(CC[C@@]13C)C(=O)OC4)[C@@H]2OC(=O)CCCO[C@@H]1OC(CO)[C@@H](O)C(O)C1O (stereo in doubt) [Compound 1]
endogenous RNAPII (RPB1) level [1]: depletes endogenous RNA polymerase II
percentage of cells with nuclear fragmentation (HeLa cells; HeLa, 1 (unit uncertain) compound 1): 23%
cytochrome c release from mitochondria to cytosol (HeLa cells; [4]): triggers the release of cytochrome c
percentage of cells with nuclear fragmentation (HeLa cells; [4]): 53%
caspase-3 activation (HeLa cells; HeLa, western blot): activated caspase-3 dose dependently
PARP1 cleavage (HeLa cells; increasing concentrations of compound 1, western blot): Pronounced PARP1 cleavage
RPB1 level [2]: remained stable
effect of hypoxia on anti-proliferative effect (HepG2): resistance; also recorded: remains resistant
onset of RNAPII (RPB1) degradation [3]: observed as early as 6 h
